Experimental data taken from patent US10370371B2, “Substituted pyrimidine Bmi-1 inhibitors” (PTC Therapeutics, Inc., priority 2013, dated 2019).

These molecules were tested on Bmi-1 protein (assay: Sandwich ELISA Assay (Bmi-1 protein level in HT-1080 cells)).
Format: cell-based
Method: Cell Seeding and Compound Treatment (Day 1):
HT-1080 cells were seeded at 8000 cells/well (50 μL) in 96-well tissue culture plates. After the cells became adherent (3-4 hours), 2× diluted stocks of test compounds in 50 μL DMEM containing 1% DMSO (final DMSO concentration was 0.5%) were added and the plates were incubated at 37° C. under 5% CO2 for 40-48 hours.
ELISA Plate First Antibody Preparation (Day 2):
The First Antibody (Millipore Mouse, monoclonal to mouse Bmi-1, clone F6, catalog #05-637) diluted to 2 μg/mL in PBS was added (100 μL) to each well of a Nunc MaxiSorp 96-well ELISA plate. The plate was covered with a plate seal and allowed to stand overnight.
Cell Lysate Preparation (Day 3):
Fresh Lysis buffer (1×) was prepared on the day of the assay as follows: 1 mM EDTA, 150 mM NaCl, 0.5% Triton-X 100, 10 mM NaF, 20 mM B-Glycerophosphate, 1 mM DTT (in PBS, pH 7.2-7.4) and HALT protease inhibitor cocktail (1×) (Pierce #78410).
Lysis Buffer (1×, 40 μL) was added to each well and the plate was shaken for 5-10 minutes on an orbital shaker to allow cell lysis, then diluent (1% BSA in PBS in 0.5% NP40) (100 μL) was added to each well.
A standard curve was prepared at the following Bmi-1 concentrations: 8000, 4000, 2000, 1000, 500, 250, 125 and 0 pg/mL. The Bmi-1 Recombinant Protein Standard (Novus Biologicals PCGF4 Recombinant Protein (P01), catalog # H00000648-P01) used to prepare the standard curve was stored at −80° C. On first thaw, the Recombinant Protein Standard was diluted to 10 μg/μL in Blocking Buffer (1% BSA in PBS; BSA: Fisher Scientific Catalog #1600-100). Aliquots were taken and refrozen at −80° C. The aliquots may be kept at 4° C. and reused after first thaw, but only within 1-2 weeks. The Recombinant Protein Standard contains a GST-fusion tag that appears at approximately 70 Kda on Western Blot.
The prepared ELISA plate was washed 3× with Wash Buffer (0.05% Tween-20 in PBS). The final wash was removed from the plate and the plate was blotted dry. Blocking Buffer (300 μL) (1% BSA in PBS) was added to each well. The plate was covered with a plate seal and incubated at room temperature for 1 hour. The blocked plate was washed 3× with Wash Buffer, then the final wash was removed and the plate was blotted dry. The previously prepared samples and standards were added (100 μL/well) and the plate was covered with a plate seal and incubated at 4° C. overnight.
The prepared ELISA plate was removed from incubation and allowed to stand at room temperature for 30 minutes, then washed and blotted dry. The Second Antibody (Cell Signaling Rabbit anti-Bmi-1, Cat#2830) diluted to 1:600 in Blocking Buffer was added (100 μL) to each well, except as needed for background control wells. The plate was covered with a plate seal and incubated for 1.5 hrs at room temperature.
The ELISA plate was washed and blotted dry as previously described. The Third Antibody (Cell Signaling HRP conjugated anti-rabbit IgG (CellSignaling, Cat#:7074) diluted to 1:300 in Blocking Buffer was added (100 μL) to each well, except as needed for background control wells. The plate was incubated for 1 hr at room temperature.
The plate was washed and blotted dry, then a previously prepared TMB substrate (TMB substrate kit, Pierce catalog #34021) (prepared by mixing kit reagents 1:1) (100 μL) was added per well. The plate was incubated for 20-30 minutes at room temperature in the dark, then Stop Solution (2 M sulfuric acid in water) (50 μL) was added per well. The plates were read at OD450 (experimental) and OD570 (reference).

EC50 [nM] | Compound
10 to 100 | Cc1nc2c(F)cccc2n1-c1cc(N)nc(Nc2ccc(C(F)(F)F)cc2)n1 [Cpd 35, 6-(4-fluoro-2-methyl-1H-benzimidazol-1-yl)-N^2-[4-(trifluoromethyl)phenyl]pyrimidine-2,4-diamine]
100 to 3000 | Cc1nc2ccccc2n1-c1cc(Cl)nc(Nc2ccc(C(F)(F)F)nc2)n1 [Cpd 36, 4-chloro-6-(2-methyl-1H-benzimidazol-1-yl)-N-[6-(trifluoromethyl)pyridin-3-yl]pyrimidin-2-amine]
10 to 100 | Cc1nc2ccccc2n1-c1cc(N)nc(Nc2ccc(C(F)(F)F)nc2)n1 [Cpd 37, 6-(2-methyl-1H-benzimidazol-1-yl)-N^2-[6-(trifluoromethyl)pyridin-3-yl]pyrimidine-2,4-diamine]
100 to 3000 | Cc1nc2ccc(F)cc2n1-c1cc(Cl)nc(Nc2ccc(C(F)(F)F)nc2)n1 [Cpd 38, 4-chloro-6-(6-fluoro-2-methyl-1H-benzimidazol-1-yl)-N-[6-(trifluoromethyl)pyridin-3-yl]pyrimidin-2-amine]
10 to 100 | Cc1nc2cc(F)ccc2n1-c1cc(N)nc(Nc2ccc(C(F)(F)F)nc2)n1 [Cpd 39, 6-(5-fluoro-2-methyl-1H-benzimidazol-1-yl)-N^2-[6-(trifluoromethyl)pyridin-3-yl]pyrimidine-2,4-diamine]
10 to 100 | Cc1nc2ccc(F)cc2n1-c1cc(N)nc(Nc2ccc(C(F)(F)F)nc2)n1 [Cpd 40, 6-(6-fluoro-2-methyl-1H-benzimidazol-1-yl)-N^2-[6-(trifluoromethyl)pyridin-3-yl]pyrimidine-2,4-diamine]
10 to 100 | Cc1nc2ccc(Br)cc2n1-c1cc(N)nc(Nc2ccc(C(F)(F)F)cc2)n1 [Cpd 41, 6-(6-bromo-2-methyl-1H-benzimidazol-1-yl)-N^2-[4-(trifluoromethyl)phenyl]pyrimidine-2,4-diamine]
10 to 100 | Cc1ccc2nc(C)n(-c3cc(N)nc(Nc4ccc(C(F)(F)F)cc4)n3)c2c1 [Cpd 42, 6-(2,6-dimethyl-1H-benzimidazol-1-yl)-N^2-[4-(trifluoromethyl)phenyl]pyrimidine-2,4-diamine]
10 to 100 | CCc1nc2cc(F)ccc2n1-c1cc(N)nc(Nc2ccc(C(F)(F)F)nc2)n1 [Cpd 43, 6-(2-ethyl-5-fluoro-1-benzimidazol-1-yl)-N^2-[6-(trifluoromethyl)pyridin-3-yl]pyrimidine-2,4-diamine]
10 to 100 | CCc1nc2ccc(F)cc2n1-c1cc(N)nc(Nc2ccc(C(F)(F)F)nc2)n1 [Cpd 44, 6-(2-ethyl-6-fluoro-1H-benzimidazol-1-yl)-N^2-[6-(trifluoromethyl)pyridin-3-yl]pyrimidine-2,4-diamine]
10 to 100 | Cc1nc2ccc(Cl)cc2n1-c1cc(N)nc(Nc2ccc(C(F)(F)F)cc2)n1 [Cpd 45, 6-(6-chloro-2-methyl-1H-benzimidazol-1-yl)-N^2-[4-(trifluoromethyl)phenyl]pyrimidine-2,4-diamine]
100 to 3000 | Cc1nc2ccc(Cl)cc2n1-c1cc(O)nc(Nc2ccc(C(F)(F)F)cc2)n1 [Cpd 46, 6-(6-chloro-2-methyl-1H-benzimidazol-1-yl)-2-{[4-(trifluoromethyl)phenyl]amino}pyrimidin-4-ol]
100 to 3000 | Cc1nc2cc(Cl)ccc2n1-c1cc(N)nc(Nc2ccc(C(F)(F)F)cc2)n1 [Cpd 47, 6-(5-chloro-2-methyl-1H-benzimidazol-1-yl)-N^2-[4-(trifluoromethyl)phenyl]pyrimidine-2,4-diamine]
10 to 100 | Cc1nc2ncc(F)cn2c1-c1cc(N)nc(Nc2ccc(C(F)(F)F)cc2)n1 [Cpd 48, 6-(6-fluoro-2-methylimidazo[1,2-a]pyrimidin-3-yl)-N^2-[4-(trifluoromethyl)phenyl]pyrimidine-2,4-diamine]
100 to 3000 | Cc1nc2cc(F)cc(F)c2n1-c1cc(N)nc(Nc2ccc(OC(F)F)cc2)n1 [Cpd 49, N^2-[4-(difluoromethoxy)phenyl]-6-(5,7-difluoro-2-methyl-1H-benzimidazol-1-yl)pyrimidine-2,4-diamine]
10 to 100 | Nc1cc(-c2c(C(F)(F)F)nc3ccc(F)cn23)nc(Nc2ccc(C(F)(F)F)cc2)n1 [Cpd 50, 6-[6-fluoro-2-(trifluoromethyl)imidazo[1,2-a]pyridin-3-yl]-N^2-[4-(trifluoromethyl)phenyl]pyrimidine-2,4-diamine]
10 to 100 | Cc1nc2c(F)cccc2n1-c1cc(N)nc(Nc2ccc(OC(F)F)cc2)n1 [Cpd 51, N^2-[4-(difluoromethoxy)phenyl]-6-(4-fluoro-2-methyl-1H-benzimidazol-1-yl)pyrimidine-2,4-diamine]
100 to 3000 | Cc1cc(Nc2nc(N)cc(-n3c(C)nc4c(F)cccc43)n2)ccc1C(F)(F)F [Cpd 52, 6-(4-fluoro-2-methyl-1H-benzimidazol-1-yl)-N^2-[3-methyl-4-(trifluoromethyl)phenyl]pyrimidine-2,4-diamine]
10 to 100 | Cc1ccc2nc(C)n(-c3cc(N)nc(Nc4ccc(C(F)(F)F)c(C)c4)n3)c2c1 [Cpd 53, 6-(2,6-dimethyl-1H-benzimidazol-1-yl)-N^2-[3-methyl-4-(trifluoromethyl)phenyl]pyrimidine-2,4-diamine]
1 to 10 | Cc1ccc2nc(C)n(-c3cc(N)nc(Nc4ccc(OC(F)F)cc4)n3)c2c1 [Cpd 54, N^2-[4-(difluoromethoxy)phenyl]-6-(2,6-dimethyl-1H-benzimidazol-1-yl)pyrimidine-2,4-diamine]
10 to 100 | Nc1cc(-c2c(C(F)(F)F)nc3ccc(F)cn23)nc(Nc2ccc(OC(F)F)cc2)n1 [Cpd 55, N^2-[4-(difluoromethoxy)phenyl]-6-[6-fluoro-2-(trifluoromethyl)imidazo[1,2-a]pyridin-3-yl]pyrimidine-2,4-diamine]
100 to 3000 | Cc1nc2ccccc2n1-c1nc(Nc2ccc(C(F)(F)F)cc2)nc(N)c1F [Cpd 56, 5-fluoro-6-(2-methyl-1H-benzimidazol-1-yl)-N^2-[4-(trifluoromethyl)phenyl]pyrimidine-2,4-diamine]
10 to 100 | CCc1nc2ccccc2n1-c1nc(Nc2ccc(C(F)(F)F)cc2)nc(N)c1F [Cpd 57, 6-(2-ethyl-1H-benzimidazol-1-yl)-5-fluoro-N^2-[4-(trifluoromethyl)phenyl]pyrimidine-2,4-diamine]
100 to 3000 | Cc1nc2ccc(F)cc2n1-c1nc(Nc2ccc(C(F)(F)F)cc2)nc(N)c1F [Cpd 58, 5-fluoro-6-(6-fluoro-2-methyl-1H-benzimidazol-1-yl)-N^2-[4-(trifluoromethyl)phenyl]pyrimidine-2,4-diamine]
100 to 3000 | CCc1nc2ccc(F)cc2n1-c1nc(Nc2ccc(C(F)(F)F)cc2)nc(N)c1F [Cpd 59, 6-(2-ethyl-6-fluoro-1H-benzimidazol-1-yl)-5-fluoro-N^2-[4-(trifluoromethyl)phenyl]pyrimidine-2,4-diamine]
10 to 100 | Cc1nc2c(F)cc(F)cc2n1-c1cc(N)nc(Nc2ccc(OC(F)F)cc2)n1 [Cpd 60, N^2-[4-(difluoromethoxy)phenyl]-6-(4,6-difluoro-2-methyl-1H-benzimidazol-1-yl)pyrimidine-2,4-diamine]
10 to 100 | Nc1cc(-n2c(C3CC3)nc3ccccc32)nc(Nc2ccc(C(F)(F)F)cc2)n1 [Cpd 61, 6-(2-cyclopropyl-1H-benzimidazol-1-yl)-N^2-[4-(trifluoromethyl)phenyl]pyrimidine-2,4-diamine]
